Assay results as given in patent publication US20040247604A1, “Anti-inflamatory fatty alcohols and fatty acid esters useful as antigen carriers” (priority 2001, published 2004).
Where “and” joins values, the source holds several entries; their conditions need not be identical. Identical values can stand only once.

System: adjuvant arthritis
Assay: Protection against adjuvant arthritis (AA): inhibition of joint inflammation
Type: in vivo, Lewis rats
Details: for % Inhibition of inflammation of adjuvant arthritis: 100 μl, subcutaneously once (14 days before or day 12 after induction of AA), day of maximal inflammation; for inflammation suppressed on day of peak disease: day 26

| Compound | % Inhibition of inflammation of adjuvant arthritis (Lewis rats) | also measured |
| --- | --- | --- |
| Mannose monooleate | 95% |  |
| CCCCCCCC/C=C\CCCCCCCC(=O)OCC(O)CO (stereo not shown) [Glycerol mono-oleate] | 98% |  |
| CCCCCCCC/C=C\CCCCCCCC(=O)O [oleic acid, cis-9-octadecenoic acid, reference compound] | no effect |  |
| CCCCCCCCCCCCCCCCO [Cetyl alcohol] | 66% |  |
| CCC=CCC=CC/C=C\CCCCCCCCO [Linolenyl alcohol, cis-9,12,15-octadecatrienol] | 75% |  |
| CCCCCCCC/C=C\CCCCCCCCO [Oleyl alcohol, cis-9-octadecenol] | 78%-96% | inflammation suppressed on day of peak disease (10 μl SC once 14 days before induction of AA): 14%; inflammation suppressed on day of peak disease (50 μl SC once 14 days before induction of AA): 61%; inflammation suppressed on day of peak disease (100 μl SC once 14 days before induction of AA): 78%; inflammation suppressed on day of peak disease (500 μl SC once 14 days before induction of AA): 90%; suppression of the inflammation (500 μl oleyl alcohol, two further experiments, Lewis rats): 96% and 91% |
| CCCCCCCC/C=C\CCCCCCCC(=O)OC [Methyl oleate] | 76% |  |
| CCCCCCCC/C=C\CCCCCCCC(=O)OCC [Ethyl oleate] | 92% |  |
